Laboratory results published in PubChem BioAssay (NCI).
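How tested: cells in 96-well plates exposed to compound for 48 hours at five concentrations. TGI: total growth inhibition.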

What was measured:
Experiment in all cases: NCI tumour cell line growth inhibition, 48 h
[1] = test system: SN12K1 renal
[2] = test system: SK-MEL-5 melanoma
[3] = test system: HCC-2998 colon
[4] = test system: MOLT-4 leukemia
[5] = test system: RPMI-8226 leukemia
[6] = test system: SW-620 colon
[7] = test system: OVCAR-5 ovarian
[8] = test system: DMS 273 small cell lung
[9] = test system: EKVX NSCLC
[10] = test system: NCI-H460 lung
[11] = test system: CCRF-CEM leukemia
[12] = test system: MALME-3M melanoma
[13] = test system: UO-31 renal
[14] = test system: HT29 colon
[15] = test system: XF 498 CNS
[16] = test system: SK-OV-3 ovarian
[17] = test system: HCT-15 colon
[18] = test system: SN12C renal
[19] = test system: IGROV1 ovarian
[20] = test system: NCI-H226 lung
[21] = test system: HCT-116 colon
[22] = test system: KM20L2 colon
[23] = test system: M19-MEL melanoma
[24] = test system: A549 NSCLC
[25] = test system: NCI-H522 lung
[26] = test system: COLO 205 colon
[27] = test system: SF-295 CNS
[28] = test system: U251 CNS
[29] = test system: HOP-18 NSCLC
[30] = test system: RXF 393 renal
[31] = test system: SNB-78 CNS
[32] = test system: NCI-H23 lung
[33] = test system: SF-539 CNS
[34] = test system: NCI/ADR-RES ovarian
[35] = test system: MCF7 breast
[36] = test system: HL-60(TB) leukemia
[37] = test system: SNB-19 CNS
[38] = test system: UACC-62 melanoma
[39] = test system: P388/ADR leukemia
[40] = test system: DMS 114 small cell lung
[41] = test system: SF-268 CNS
[42] = test system: KM12 colon
[43] = test system: LOX IMVI melanoma
[44] = test system: DLD-1 colon
[45] = test system: SK-MEL-2 melanoma
[46] = test system: SNB-75 CNS
[47] = test system: SK-MEL-28 melanoma
[48] = test system: HOP-62 NSCLC
[49] = test system: OVCAR-4 ovarian
[50] = test system: OVCAR-8 ovarian
[51] = test system: K-562 leukemia
[52] = test system: OVCAR-3 ovarian
[53] = test system: P388 leukemia
[54] = test system: HOP-92 NSCLC
[55] = test system: UACC-257 melanoma
[56] = test system: CAKI-1 renal
[57] = test system: A498 renal

Measured: TGI

CN1CCN(P2(=S)Oc3ccc4ccccc4c3-c3c(ccc4ccccc34)O2)CC1
> 67.5 µM: [56]
39.6 µM: [43]
42.4 µM: [45]
46.2 µM: [4]
49.8 µM: [14]
> 81.2 µM: [35]
73 µM: [8]
42.1 µM: [10]
> 76.9 µM: [51]
42.6 µM: [33]
28.8 µM: [26]
41.8 µM: [3]
39.9 µM: [36]
> 71 µM: [34]
50.8 µM: [12]
48 µM: [13]
64 µM: [25]
43.1 µM: [5]
59.7 µM: [54]
> 78.9 µM: [48]
> 68 µM: [53]
> 92.3 µM: [20]
53.2 µM: [2]
51.1 µM: [42]
> 94.7 µM: [30]
67.3 µM: [15]
> 61.7 µM: [22]
56.9 µM: [1]
> 95.5 µM: [39]
> 91.4 µM: [55]
> 100 µM: [6] | [7] | [11] | [16] | [17] | [18] | [19] | [21] | [23] | [24] | [27] | [28] | [29] | [31] | [32] | [37] | [38] | [40] | [41] | [44] | [46] | [47] | [49] | [50] | [52] | [57]
> 77.8 µM: [9]

O=NN(CCF)C(=O)NC1CCSCC1
> 31.6 µM: [51]
> 100 µM: [1] | [2] | [3] | [4] | [5] | [6] | [7] | [8] | [10] | [11] | [12] | [13] | [14] | [16] | [17] | [18] | [19] | [21] | [22] | [23] | [24] | [25] | [26] | [27] | [28] | [29] | [30] | [31] | [32] | [33] | [34] | [35] | [36] | [37] | [38] | [39] | [40] | [41] | [42] | [43] | [44] | [45] | [46] | [47] | [48] | [49] | [50] | [52] | [53] | [54] | [55] | [56] | [57]
